≈ marks a conversion by molar mass, not a printed value. Positions of bridges follow the written chain, without caps; N, C: chain ends. Non-standard residues stand in square brackets, D forms with d. Residues, ends and D or L forms follow the SMILES beside them. *: point of attachment. CH2CH2OBz(4-tBu) = CC(C)(C)c1ccc(C(=O)OCC*)cc1; Ethyl(2-propionyloxy) = CCC(=O)OCC*; Dab = NCC[C@H](N)C(=O)O; Dap = NC[C@H](N)C(=O)O; X4 = CCCCCCCC(=O)OCC*; Mpa = O=C(O)CCS

This experiment concerns E. coli ATCC 25922. In kind it is cell-based, Escherichia coli. The conditions noted are these: ATCC 25922. The source says: All 81 compounds prepared in Examples 2 and 3 underwent screening against a panel of Gram-negative bacterium to assess their ability to inhibit bacterial growth. […] The median value is presented.
As to `CCC(=O)OCCSC[C@H](N)C(=O)N[C@H](C(=O)N[C@@H](CN)C(=O)N[C@H]1CCNC(=O)[C@H]([C@@H](C)O)NC(=O)[C@H](CCN)NC(=O)[C@H](CCN)NC(=O)[C@H](CC(C)C)NC(=O)[C@@H](Cc2ccccc2)NC(=O)[C@H](CCN)NC1=O)[C@@H](C)O` [Compound 81] (H-C(Ethyl(2-propionyloxy))T[Dap][Dab][Dab][dF]L[Dab][Dab]T; lactam 4-C), the “MIC E. coli ATCC 25922” value is 16 µg/mL (≈ 13.9 µM).
On to `CC(C)C[C@@H]1NC(=O)[C@@H](Cc2ccccc2)NC(=O)[C@H](CCN)NC(=O)[C@@H](NC(=O)[C@H](CCN)NC(=O)[C@@H](NC(=O)[C@H](N)CSCCOC(=O)c2ccc(C(C)(C)C)cc2)[C@@H](C)O)CCNC(=O)[C@H]([C@@H](C)O)NC(=O)[C@H](CCN)NC(=O)[C@H](CCN)NC1=O` [Compound 80] (H-[dC](CH2CH2OBz(4-tBu))T[Dab][Dab][Dab][dF]L[Dab][Dab]T; lactam 4-C), for which the “MIC E. coli ATCC 25922” value was 0.5 µg/mL (≈ 0.394 µM).
`CCCCCCCC(=O)OCCSC[C@@H](N)C(=O)N[C@H](C(=O)N[C@@H](CCN)C(=O)N[C@H]1CCNC(=O)[C@H]([C@@H](C)O)NC(=O)[C@H](CCN)NC(=O)[C@H](CCN)NC(=O)[C@H](CC(C)C)NC(=O)[C@@H](Cc2ccccc2)NC(=O)[C@H](CCN)NC1=O)[C@@H](C)O` [Compound 77] (H-[dC](X4)T[Dab][Dab][Dab][dF]L[Dab][Dab]T; lactam 4-C): the “MIC E. coli ATCC 25922” value was 0.25 µg/mL (≈ 0.202 µM).
`CCC(=O)OCCSCCC(=O)N[C@H](C(=O)N[C@@H](CN)C(=O)N[C@H]1CCNC(=O)[C@H]([C@@H](C)O)NC(=O)[C@H](CCN)NC(=O)[C@H](CCN)NC(=O)[C@H](CC(C)C)NC(=O)[C@@H](Cc2ccccc2)NC(=O)[C@H](CCN)NC1=O)[C@@H](C)O` [Compound 83] ([Mpa](Ethyl(2-propionyloxy))T[Dap][Dab][Dab][dF]L[Dab][Dab]T; lactam 4-C): the “MIC E. coli ATCC 25922” value came to 2 µg/mL (≈ 1.76 µM).
On to `CCC(=O)OCCSC[C@H](N)C(=O)N[C@H](C(=O)N[C@@H](CCN)C(=O)N[C@H]1CCNC(=O)[C@H]([C@@H](C)O)NC(=O)[C@H](CCN)NC(=O)[C@H](CCN)NC(=O)[C@H](CC(C)C)NC(=O)[C@@H](Cc2ccccc2)NC(=O)[C@H](CCN)NC1=O)[C@@H](C)O` [Compound 65] (H-C(Ethyl(2-propionyloxy))T[Dab][Dab][Dab][dF]L[Dab][Dab]T; lactam 4-C), for which the “MIC E. coli ATCC 25922” value worked out at 64 µg/mL (≈ 54.9 µM).
For `CC(C)C[C@@H]1NC(=O)[C@@H](Cc2ccccc2)NC(=O)[C@H](CCN)NC(=O)[C@@H](NC(=O)[C@H](CCN)NC(=O)[C@@H](NC(=O)[C@@H](N)CSCCOC(=O)c2ccc(C(C)(C)C)cc2)[C@@H](C)O)CCNC(=O)[C@H]([C@@H](C)O)NC(=O)[C@H](CCN)NC(=O)[C@H](CCN)NC1=O` [Compound 73] (H-C(CH2CH2OBz(4-tBu))T[Dab][Dab][Dab][dF]L[Dab][Dab]T; lactam 4-C) the value was 1 µg/mL (≈ 0.787 µM).
On to `CCC(=O)OCCSC[C@H](N)C(=O)N[C@H](C(=O)N[C@@H](CCN)C(=O)N[C@H]1CCNC(=O)[C@H]([C@@H](C)O)NC(=O)[C@H](CCN)NC(=O)[C@H](CCN)NC(=O)[C@H](CC(C)C)NC(=O)[C@@H](Cc2ccccc2)NC(=O)[C@H](CCN)NC1=O)[C@@H](C)O` [Compound 61] (H-C(Ethyl(2-propionyloxy))T[Dab][Dab][Dab][dF]L[Dab][Dab]T; lactam 4-C), for which the “MIC E. coli ATCC 25922” value is above 128 µg/mL.

The record behind these values is US20250282827A1, “LIPIDATED POLYMYXIN ANALOGUES” (priority 2021, published 2025).
